The values below come from patent US20240261429A1, “CPMV BINDING PEPTIDE” (The Regents of the University of California, priority 2021, published 2024).

Experiment [1] has as its target CPMV. In words: Competitive ELISA between synthetic CBP peptides and monoclonal phage MPSEF. The following applies: for Kd: competition binding ELISA against MPSEF, read-out: dissociation constant KD. It is filed as binding, Cowpea mosaic virus. On the procedure:
5 μg of CPMV (in 0.1 M bicarbonate buffer, pH 8.6) was coated into each well of a Nunc Maxisorp™ flat-bottom 96-well plate and incubated overnight at 4° C. 2% (w/v) BSA was also coated to serve as negative control. Next day, the plate was blocked with 2% (w/v) BSA and incubated at rt with shaking at 800 rpm for 1 h. Subsequently, the plate was washed thrice with 0.1% TBST for 1 min. 100 μL of amplified phage from the last biopanning cycle was added into each well followed by incubation at rt with shaking at 800 rpm for 1 h. Later, the plate was washed thrice with 0.5% TBST for 5 min. 100 μL of 1:500 dilution of HRP-conjugated anti-M monoclonal antibody (Abcam ab50370) was added and incubated at rt for 1 h with shaking at 8 rpm. The plate was again washed thrice with 0.5% TBST for 5 min followed by adding 100 μL of tetramethylbenzidine (TMB) substrate (Thermo Scientific Pierce) into each well. The plate was incubated at dark for 10 min and the absorbance was measured at 370 nm using an Infinite 200 Rx plate reader (Tecan Life Sciences) with 25 flashes in 96-well flat-bottom plate mode. Monoclonal phages with at least 0.3 difference in absorbance value between CPMV and BSA were subjected for DNA sequencing (Eurofins Genomics).
Competitive ELISA was performed as mentioned in ‘Monoclonal ELISA’ with modifications. Two-fold serial dilutions of CPMV peptide (0.500 μg, 0.250 μg, 0.125 μg, 0.063 μg, 0.031 μg, 0.016 μg, 0.008 μg, 0.004 μg, 0.002 μg) were added separately into the well together with 10^9 pfu of monoclonal phages. The reaction after incubation with TMB substrate was stopped with 50 μL of 2 N H2SO4. Colorimetric detection was carried out by measurement at 450 nm using an Infinite 200 Rx plate reader (Tecan Life Sciences) with 25 flashes in 96-well flat-bottom plate mode.
To determine the dissociation constant KD, competition binding ELISAs were set up. Here binding of synthetic CBPs (used in a dilution series) to CPMV was competed against MPSEF (used as constant amount). Phage MPSEF was detected by HRP-conjugated anti-M13 monoclonal antibody and measured at OD450 nm. CPMV bound MPSEF (OD450 nm) is inversely proportionate to the amount of peptide loaded for competition. The amount of MPSEF binding to CPMV reduced with the increasing amount of synthetic peptides, subsequently yielded lower absorbance value (FIG. 4G and FIG. 4H). […] Different modes of peptide modification resulted different IC50 and KD values despite having the exact same sequence.

Experiment [2] relates to CPMV. In words: Peptide ELISA of CBP-biotin on streptavidin plate. The following applies: 5 μg CPMV, vs. control without CPMV, p<0.0001 (FIG. 4E). It is filed as binding, Cowpea mosaic virus. On the procedure: The plate was blocked with 2% (w/v) BSA followed by three washings with 0.1% TBST for 1 min per wash. 5 μg of CPMV was added for binding and incubated for 1 h at rt with shaking at 8 rpm. Then the plate was washed thrice with 0.5% TBST for 5 min each wash. 100 μL of anti-CPMV rabbit polyclonal antibodies (1:500 dilution) was added to the wells followed by incubation at rt for 1 h with shaking at 800 rpm. Following three washing steps using 0.5% TBST for 5 min, 100 μL of HRP conjugated goat anti-rabbit antibodies (1:5000 dilution; Pacific Immunology) was added to the wells and incubated at rt for 1 h with shaking at 800 rpm. Finally, the plate was washed thrice with 0.5% TBST followed by adding 100 μL of TMB substrate (Thermo Scientific Pierce) into each well. The plate was incubated in the dark for 5-10 min and the reaction was stopped with 50 μL of 2N H2SO4. Absorbance was measured at 450 nm using an Infinite 200 Rx plate reader (Tecan Life Sciences) with 25 flashes in 96-well flat-bottom plate mode.
Next, Applicant performed a series of enzyme-linked immunosorbent assays (ELISAs) using the CBP-FITC and CBP-biotin to further probe their binding affinity to CPMV. CBP-biotin was coated onto a streptavidin-functionalized plate, this was followed by incubation with CPMV (CPMV was omitted for the control) (FIG. 4E). […]
For orientation: In an ELISA, binding on a coated surface is turned into a signal by an enzyme label.

The test system of experiment [3] is CPMV coat proteins (S and L protein). Kind of experiment: Modified western blot of CBP-biotin on denatured CPMV coat proteins. It is filed as binding, Cowpea mosaic virus. As to conditions: denatured S and L protein on nitrocellulose, streptavidin HRP (FIG. 3C). On the procedure: 10 μg of CPMV was loaded onto a NuPage™ 12% bis-tris gel (Thermo Fisher Scientific) and electrophoresed for 40 min at 200 V. Proteins were then blotted onto Amersham Protran 0.45 Nitrocellulose membrane (GE Healthcare) at 25 V for 2 h. The membrane was then blocked with 5% (w/v) BSA for 1 h at rt with gentle shaking. Subsequently, the membrane was washed thrice with 0.5% TBST for 1 min. 1 μg/mL of CPMV-biotin peptide was added to the membrane for 1 h incubation at rt. The membrane was then washed with 0.5% TBST for min. 100 μL of 1:500 dilution of HRP-conjugated anti-streptavidin monoclonal antibody (Abcam ab7403) was added and incubated at rt for 1 h. Following three washes with 0.5% TBST, the membrane was developed with DAB substrate kit, peroxidase HRP (Vector Laboratories) for 5-10 min. The DAB reagent was drained off and the bands were documented with ProteinSimple FluorChem®.
A general note: In western blotting, separated proteins are transferred to a membrane and probed.

Experiment [4] deals with CPMV. In words: Native agarose gel electrophoresis of FITC peptides with CPMV. It counts as binding, Cowpea mosaic virus. As to conditions: 1.2% agarose gel after dual-purification. On the procedure:
10 μg of FITC peptide conjugated CPMV was loaded onto a 1.2% (w/v) TAE agarose gel. 10 μg of CPMV and 1 μg of free CPMV-FITC peptide was loaded as control. The samples were electrophoresed at 110 V for 40 min.
The dual functional CBP-AHNP peptide was synthesized by fusing AHNP to the C-terminus of the CBP domain. A control peptide (*AHNP) without the CBP domain was also synthesized; both peptides were modified with a FITC label at their C terminus. CPMV-CBP-AHNP and controls were characterized by native agarose gel electrophoresis as described above.

For experiment [5], the target named is p185HER2/neu (Homo sapiens, UniProt P04626). The following applies: binding to p185HER2/neu; cited from earlier work.
The target in experiment [6] is T1, Cowpea mosaic virus (CPMV) (Cowpea mosaic virus), P03599.
T1 chain 1: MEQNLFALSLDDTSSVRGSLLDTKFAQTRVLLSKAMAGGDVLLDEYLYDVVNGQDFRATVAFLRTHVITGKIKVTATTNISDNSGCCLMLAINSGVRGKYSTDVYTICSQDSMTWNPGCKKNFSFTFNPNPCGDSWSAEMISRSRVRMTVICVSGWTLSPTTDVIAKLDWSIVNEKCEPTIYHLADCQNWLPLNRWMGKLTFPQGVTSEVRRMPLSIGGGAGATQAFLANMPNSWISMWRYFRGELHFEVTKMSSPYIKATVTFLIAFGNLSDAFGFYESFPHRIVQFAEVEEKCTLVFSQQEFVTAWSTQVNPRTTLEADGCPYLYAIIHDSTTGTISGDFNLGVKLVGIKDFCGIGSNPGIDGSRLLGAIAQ
T1 chain 2: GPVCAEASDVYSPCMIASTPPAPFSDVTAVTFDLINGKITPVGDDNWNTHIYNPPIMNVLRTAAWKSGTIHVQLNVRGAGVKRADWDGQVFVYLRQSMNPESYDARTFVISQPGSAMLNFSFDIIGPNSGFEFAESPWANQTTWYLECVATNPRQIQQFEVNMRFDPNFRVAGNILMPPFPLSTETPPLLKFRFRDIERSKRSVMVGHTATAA
In words: from competition binding ELISA against MPSEF phage on coated CPMV.

Experiment [7] addresses T1, Cowpea mosaic virus (CPMV) (Cowpea …). Kind of experiment: competitive ELISA against MPSEF phage (10^9 pfu) on coated CPMV.
The target is the same in experiment [8]. In words: UV/visible spectroscopy of the purified complex (500-molar excess of peptide).
The mark [9] stands for this setting: peptide dilution series competed against constant MPSEF phage for CPMV, OD450 nm.

Primed or numbered codes have the meaning given here. Ends that are not written are not given here. Peptide text beside a SMILES is read from it. * marks the point of attachment. FITC = O=C1OC2(c3ccc(O)cc3Oc3cc(O)ccc32)c2ccc(NC(=S)*)cc21; Biotin = O=C1N[C@H]2[C@H](CS[C@H]2CCCCC(=O)*)N1; FITC′ = fluorescein isothiocyanate

Broadly, the Kd is the concentration at which binding is half-saturated. With `CC(C)[C@H](NC(=O)[C@H](CCCNC(=N)N)NC(=O)[C@H](Cc1c[nH]c2ccccc12)NC(=O)CN)C(=O)N[C@@H](CO)C(=O)N[C@@H](CCC(=O)O)C(=O)N[C@@H](Cc1ccccc1)C(=O)NCC(=O)NCC(=O)NCC(=O)N[C@@H](CO)C(=O)N[C@@H](CCCCNC(=O)CCCC[C@@H]1SC[C@@H]2NC(=O)N[C@@H]21)C(=O)O` [CBP-biotin] (H-GWRVSEFGGGSK(Biotin)-OH; N-terminus and C-terminus assumed), the equilibrium dissociation constant (Kd) in experiment [1] was around 0.007 µM. Further, in experiment [1] (setting [9]), the “half maximal inhibition concentration (IC50)” value worked out at 0.17 µg. The IC50 in experiment [1] (peptide dilution series competed against constant MPSEF phage for CPMV, OD450 nm, read-out: half maximal inhibition concentration (IC50)) amounted to 1.14 µM. Moreover, in experiment [2], the “CPMV binding in ELISA” value was “consistent with CPMV binding”. In addition, the “binding to CPMV coat proteins in western blot” value in experiment [3] is listed as “bound to the CPMV coat proteins”.
On to “N-GWRVSEF-KKKKKKKKDDDD-FCDGFYACYMDVK/FITC/-C (GWRVSEFKKKKKKKKDDDDFCDGFYACYMDVK; not fully specified (C-terminus, bridges); cysteine pairing not given here; also: FITC label at C-terminal Lys) [CBP-AHNP, dual functional peptide, AHNP fused to the C-terminus of the CBP domain, FITC label]”, for which the “labeling of CPMV seen by native agarose gel electrophoresis (FITC signal with RNA and protein band)” value in experiment [4] was “successful labeling”.
Take “FCDGFYACYMDV [AHNP, cyclic peptide derived from monoclonal antibody trastuzumab, HER2 ligand]”: in experiment [5], the dissociation constant (Kd) is 0.3 µM.
For “N-KKKKKKKKDDDD-FCDGFYACYMDVK/FITC/-C (KKKKKKKKDDDDFCDGFYACYMDVK; not fully specified (C-terminus, bridges); cysteine pairing not given here; also: FITC label at C-terminal Lys) [*AHNP, control peptide without the CBP domain, FITC label at C terminus, reference compound]”, the “labeling of CPMV seen by native agarose gel electrophoresis (FITC signal with RNA and protein band)” value in experiment [4] was “no non-specific interaction”.
`CC(C)[C@H](NC(=O)[C@H](CCCNC(=N)N)NC(=O)[C@H](Cc1c[nH]c2ccccc12)NC(=O)CN)C(=O)N[C@@H](CO)C(=O)N[C@@H](CCC(=O)O)C(=O)N[C@@H](Cc1ccccc1)C(=O)NCC(=O)NCC(=O)NCC(=O)N[C@@H](CO)C(=O)N[C@@H](CCCCNC(=S)Nc1ccc2c(c1)C(=O)OC21c2ccc(O)cc2Oc2cc(O)ccc21)C(=O)O` [CBP-FITC] (H-GWRVSEFGGGSK(FITC)-OH; N-terminus and C-terminus assumed): the dissociation constant Kd in experiment [1] was around 0.7 µM. The “half maximal inhibition concentration (IC50)” value in experiment [1] (setting [9]) is 0.56 µg.
Molecule GWRVSEFGGGSK-biotin (not fully specified (residue 12)) [CBP-biotin (N-…/biotin/-C)] yielded a Kd in experiment [6] of 0.007 µM. Besides, the IC50 in experiment [7] came out at 1.14 µM.
The molecule GWRVSEFGGGSK-{FITC′} (not fully specified (residue 12)) [CBP-FITC (N-…/FITC/-C)] had a CBP-FITC peptides per CPMV particle (peptides per CPMV particle) in experiment [8] of 6. Also, the Kd in experiment [6] is 0.7 µM. The IC50 in experiment [7] came to 3.34 µM.
